Molecular target: T1, SHP2 protein (Homo sapiens, UniProt Q06124)
T1 sequence (Q06124 1-593): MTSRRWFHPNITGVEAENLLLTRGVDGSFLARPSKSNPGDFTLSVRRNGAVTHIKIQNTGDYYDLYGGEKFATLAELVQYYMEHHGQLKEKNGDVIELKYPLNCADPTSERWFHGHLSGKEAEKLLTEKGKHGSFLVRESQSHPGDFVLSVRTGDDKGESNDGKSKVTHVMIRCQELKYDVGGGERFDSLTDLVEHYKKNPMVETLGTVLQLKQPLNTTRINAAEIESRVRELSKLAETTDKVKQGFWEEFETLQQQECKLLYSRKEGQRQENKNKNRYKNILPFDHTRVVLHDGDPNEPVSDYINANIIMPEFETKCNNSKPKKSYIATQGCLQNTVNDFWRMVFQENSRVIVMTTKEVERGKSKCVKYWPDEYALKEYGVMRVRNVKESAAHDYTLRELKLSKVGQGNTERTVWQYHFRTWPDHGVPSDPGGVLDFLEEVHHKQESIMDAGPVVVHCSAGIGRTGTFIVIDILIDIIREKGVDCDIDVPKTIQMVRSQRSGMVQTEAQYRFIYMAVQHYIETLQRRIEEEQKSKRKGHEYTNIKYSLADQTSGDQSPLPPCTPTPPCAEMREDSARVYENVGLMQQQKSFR
Test: Measurement of SHP2 protein degradation in MV-4-11 cells (western blotting)
Format: cell-based
Design: endogenous in cells; host or cells: MV-4-11
Details: MV-4-11 cells, 24 hours
Procedure, shortened: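 SHP2 protein levels were assessed by western blotting in MV-4-11 cells after a 24 hour compound treatment. Lysates were sonicated, centrifuged, normalized by BCA assay at 562 nm, run on Bis-tris 4-12% gels, transferred to NC membrane, probed with anti-SHPTP2 (70 kDa) and anti-GAPDH (37 kDa) antibodies, and detected on LI-COR Odyssey.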

Row | SHP2 degradation (%) 10 nM [%] | SHP2 degradation (%) 100 nM [%] | SHP2 degradation (%) 1000 nM [%] | Structure (SMILES)
1 | 8.2 | 81.2 |  | Cc1ncsc1-c1ccc(CNC(=O)[C@@H]2C[C@@H](O)CN2C(=O)[C@@H](NC(=O)C2(F)CC2)C(C)(C)C)c(OCCCN2CCN(CC(=O)Nc3cccc(Sc4cnc(N5CCC(C)(CN)CC5)cn4)c3Cl)CC2)c1 [Example 73, (2S,4R)—N-(2-(3-(4-(2-((3-((5-(4-(aminomethyl)-4-methylpiperidin-1-yl)pyrazin-2-yl)thio)-2-chlorophenyl)amino)-2-oxoethyl)piperazin-1-yl)propoxy)-4-(4-methylthiazol-5-yl)benzyl)-1-((S)-2-(1-fluorocyclopropane-1-carboxamido)-3,3-dimethylbutanoyl)-4-hydroxypyrrolidine-2-carboxamide]
2 | 29.0 | 80.5 | 94.5 | Cc1ncsc1-c1ccc(CNC(=O)[C@@H]2C[C@@H](O)CN2C(=O)[C@@H](NC(=O)C2(F)CC2)C(C)(C)C)c(OCCC2CCN(CCC(=O)Nc3cccc(Sc4cnc(N5CCC(C)(CN)CC5)cn4)c3Cl)CC2)c1 [Example 74, (2S,4R)—N-(2-(2-(1-(3-((3-((5-(4-(aminomethyl)-4-methylpiperidin-1-yl)pyrazin-2-yl)thio)-2-chlorophenyl)amino)-3-oxopropyl)piperidin-4-yl)ethoxy)-4-(4-methylthiazol-5-yl)benzyl)-1-((S)-2-(1-fluorocyclopropane-1-carboxamido)-3,3-dimethylbutanoyl)-4-hydroxypyrrolidine-2-carboxamide]
3 | 19.5 | 75.5 | 93.5 | Cc1ncsc1-c1ccc(CNC(=O)[C@@H]2C[C@@H](O)CN2C(=O)[C@@H](NC(=O)C2(F)CC2)C(C)(C)C)c(OCCCC2CCN(CCC(=O)Nc3cccc(Sc4cnc(N5CCC(C)(CN)CC5)cn4)c3Cl)CC2)c1 [Example 75, (2S,4R)—N-(2-(3-(1-(3-((3-((5-(4-(aminomethyl)-4-methylpiperidin-1-yl)pyrazin-2-yl)thio)-2-chlorophenyl)amino)-3-oxopropyl)piperidin-4-yl)propoxy)-4-(4-methylthiazol-5-yl)benzyl)-1-((S)-2-(1-fluorocyclopropane-1-carboxamido)-3,3-dimethylbutanoyl)-4-hydroxypyrrolidine-2-carboxamide]
4 | 92.4 | 99.5 |  | Cc1ncsc1-c1ccc(CNC(=O)[C@@H]2C[C@@H](O)CN2C(=O)[C@@H](NC(=O)C2(F)CC2)C(C)(C)C)c(OCCCN2CCN(CC(=O)Nc3cccc(Sc4cnc(N5CCC(C)(CN)CC5)cn4)c3Cl)C(=O)C2)c1 [Example 77, (2S,4R)—N-(2-(3-(4-(2-((3-((5-(4-(aminomethyl)-4-methylpiperidin-1-yl)pyrazin-2-yl)thio)-2-chlorophenyl)amino)-2-oxoethyl)-3-oxopiperazin-1-yl)propoxy)-4-(4-methylthiazol-5-yl)benzyl)-1-((S)-2-(1-fluorocyclopropane-1-carboxamido)-3,3-dimethylbutanoyl)-4-hydroxypyrrolidine-2-carboxamide]
5 | 78.4 | 98.6 |  | Cc1ncsc1-c1ccc(CNC(=O)[C@@H]2C[C@@H](O)CN2C(=O)[C@@H](NC(=O)C2CC2)C(C)(C)C)c(OCCN2CCN(CC(=O)Nc3cccc(Sc4cnc(N5CCC(C)(CN)CC5)cn4)c3Cl)C(=O)C2)c1 [Example 79, (2S,4R)—N-(2-(2-(4-(2-((3-((5-(4-(aminomethyl)-4-methylpiperidin-1-yl)pyrazin-2-yl)thio)-2-chlorophenyl)amino)-2-oxoethyl)-3-oxopiperazin-1-yl)ethoxy)-4-(4-methylthiazol-5-yl)benzyl)-1-((S)-2-(cyclopropanecarboxamido)-3,3-dimethylbutanoyl)-4-hydroxypyrrolidine-2-carboxamide]

Continued, compound first:

Row | Structure (SMILES) | SHP2 degradation (%) 10 nM [%] | SHP2 degradation (%) 100 nM [%] | SHP2 degradation (%) 1000 nM [%]
6 | Cc1ncsc1-c1ccc(CNC(=O)[C@@H]2C[C@@H](O)CN2C(=O)[C@@H](NC(=O)C2(F)CC2)C(C)(C)C)c(OCCN2CCN(C(=O)CC(=O)Nc3cccc(Sc4cnc(N5CCC(C)(CN)CC5)cn4)c3Cl)C[C@H]2C(=O)O)c1 [Example 69, (S)-4-(3-((3-((5-(4-(aminomethyl)-4-methylpiperidin-1-yl)pyrazin-2-yl)thio)-2-chlorophenyl)amino)-3-oxopropanoyl)-1-(2-(2-(((2S,4R)-1-((S)-2-(1-fluorocyclopropane-1-carboxamido)-3,3-dimethylbutanoyl)-4-hydroxypyrrolidine-2-carboxamido)methyl)-5-(4-methylthiazol-5-yl)phenoxy)ethyl)piperazine-2-carboxylic Acid] | 20 | 81.9 | 
7 | Cc1ncsc1-c1ccc(CNC(=O)[C@@H]2C[C@@H](O)CN2C(=O)[C@@H](NC(=O)C2(F)CC2)C(C)(C)C)c(OCCN2CCN(C(=O)CC(=O)Nc3cccc(Sc4cnc(N5CCC(C)(CN)CC5)cn4)c3Cl)C[C@@H]2C(=O)O)c1 [Example 70, (R)-4-(3-((3-((5-(4-(aminomethyl)-4-methylpiperidin-1-yl)pyrazin-2-yl)thio)-2-chlorophenyl)amino)-3-oxopropanoyl)-1-(2-(2-(((2S,4R)-1-((S)-2-(1-fluorocyclopropane-1-carboxamido)-3,3-dimethylbutanoyl)-4-hydroxypyrrolidine-2-carboxamido)methyl)-5-(4-methylthiazol-5-yl)phenoxy)ethyl)piperazine-2-carboxylic Acid] | 14.4 | 59.2 | 
8 | Cc1ncsc1-c1ccc(CNC(=O)[C@@H]2C[C@@H](O)CN2C(=O)[C@@H](NC(=O)C2(F)CC2)C(C)(C)C)c(OCCCC2CCN(CC(=O)Nc3cccc(Sc4cnc(N5CCC(C)(CN)CC5)cn4)c3Cl)CC2)c1 [Example 71, (2S,4R)—N-(2-(3-(1-(2-((3-((5-(4-(aminomethyl)-4-methylpiperidin-1-yl)pyrazin-2-yl)thio)-2-chlorophenyl)amino)-2-oxoethyl)piperidin-4-yl)propoxy)-4-(4-methylthiazol-5-yl)benzyl)-1-((S)-2-(1-fluorocyclopropane-1-carboxamido)-3,3-dimethylbutanoyl)-4-hydroxypyrrolidine-2-carboxamide] | −1.0 | 29.0 | 87.5
9 | Cc1ncsc1-c1ccc(CNC(=O)[C@@H]2C[C@@H](O)CN2C(=O)[C@@H](NC(=O)C2(F)CC2)C(C)(C)C)c(OCCN2CCN(CC(=O)Nc3cccc(Sc4cnc(N5CCC(C)(CN)CC5)cn4)c3Cl)CC2)c1 [Example 72, (2S,4R)—N-(2-(2-(4-(2-((3-((5-(4-(aminomethyl)-4-methylpiperidin-1-yl)pyrazin-2-yl)thio)-2-chlorophenyl)amino)-2-oxoethyl)piperazin-1-yl)ethoxy)-4-(4-methylthiazol-5-yl)benzyl)-1-((S)-2-(1-fluorocyclopropane-1-carboxamido)-3,3-dimethylbutanoyl)-4-hydroxypyrrolidine-2-carboxamide] | 5.1 | 85.6 | 
10 | Cc1ncsc1-c1ccc(CNC(=O)[C@@H]2C[C@@H](O)CN2C(=O)[C@@H](NC(=O)C2(F)CC2)C(C)(C)C)c(OCCN2CCN(CC(=O)Nc3cccc(Sc4cnc(N5CCC(C)(CN)CC5)cn4)c3Cl)C(=O)C2)c1 [Example 76, (2S,4R)—N-(2-(2-(4-(2-((3-((5-(4-(aminomethyl)-4-methylpiperidin-1-yl)pyrazin-2-yl)thio)-2-chlorophenyl)amino)-2-oxoethyl)-3-oxopiperazin-1-yl)ethoxy)-4-(4-methylthiazol-5-yl)benzyl)-1-((S)-2-(1-fluorocyclopropane-1-carboxamido)-3,3-dimethylbutanoyl)-4-hydroxypyrrolidine-2-carboxamide] | 94.2 | 99.5 | 
11 | Cc1ncsc1-c1ccc(CNC(=O)[C@@H]2C[C@@H](O)CN2C(=O)[C@@H](NC(=O)C2(F)CC2)C(C)(C)C)c(OCCCCN2CCN(CC(=O)Nc3cccc(Sc4cnc(N5CCC(C)(CN)CC5)cn4)c3Cl)C(=O)C2)c1 [Example 78, (2S,4R)—N-(2-(4-(4-(2-((3-((5-(4-(aminomethyl)-4-methylpiperidin-1-yl)pyrazin-2-yl)thio)-2-chlorophenyl)amino)-2-oxoethyl)-3-oxopiperazin-1-yl)butoxy)-4-(4-methylthiazol-5-yl)benzyl)-1-((S)-2-(1-fluorocyclopropane-1-carboxamido)-3,3-dimethylbutanoyl)-4-hydroxypyrrolidine-2-carboxamide] | 86.6 | 99.5 | 

From patent US20250230154A1, “COMPOUND HAVING SHP2 PROTEIN DEGRADING ACTIVITY, AND MEDICAL USES THEREOF” (UBIX THERAPEUTICS, INC., priority 2021, published 2025)
